Where a SMILES comes first, the peptide text is derived from it. The star is where a group is joined. Cbz = O=C(OCc1ccccc1)*
Columns and labels:
[1] = molecular target: prostate specific antigen (PSA) (Homo sapiens, UniProt P07288); test: Esterase assay, PSA on peptide ester substrates; format: biochemical; conditions: for Substrate preference of PSA: within the substrate series tested; for Rate relative to Ac-AlaValTyr-OMe (218): rate of hydrolysis
From the text: (§1) Advantage was taken of this activity to develop an "esterase" assay which uses a pH indicator to visualise the hydrogen ion release caused by the action of proteases on peptide-ester substrates. A series of twenty compounds of the form, carbobenzoxy alanyl-X-methyl ester (Z-AX-OMe) were synthesised where "X" is one of the naturally occurring amino acids. These substrates were used in a 96 well microtitre plate assay to screen each mutant enzyme for activity and specificity. The reactions were followed visually or quantified using a standard ELISA plate reader.
In all eleven compounds were synthesised and purified and tested where X was the residue listed below.

Trypsin [2] = test: Esterase assay, trypsin; format: biochemical; conditions: Z-AX-OMe substrate; for Esterase rate, Trypsin: X = P1 residue, rates approximately ± 10%; for % of maximum activity, Trypsin: percentage of the maximum activity
From the text: as §1, with “reader. The esterase assay, using trypsin as a test enzyme and Z-Ala-Arg-OMe as substrate, was more sensitive as than traditional trypsin substrates (three times the rate obtained with benzoyl arginine ethyl aster and twenty times the rate of benzoyl arginine p-nitroanilide) (Whittaker et al., Analytical Biochemistry, 220, 238-243, 1994).” for “reader.”
(§2) The present inventors produced a panel of substrates carbobenzoxy alanyl-X-methyl eater (Z-AX-OMe) where X is one of the naturally occurring amino acids. The reactivity of these substrates with a number of serine proteases is set out in Table 1 and FIG. 1.
(§3) Rates are A580 change/min./mg protease. Rates are also shown as a […]

α-Lytic protease = α-Lytic protease (Lysobacter enzymogenes, UniProt P00778); test: Esterase assay, α-lytic protease; format: biochemical; conditions: Z-AX-OMe substrate; for Esterase rate, α-Lytic protease: X = P1 residue, rates approximately ± 10%; for % activity, α-Lytic protease: normalised to alanine
From the text: as §1, with “reader. The esterase assay, using trypsin as a test enzyme and Z-Ala-Arg-OMe as substrate, was more sensitive as than traditional trypsin substrates (three times the rate obtained with benzoyl arginine ethyl aster and twenty times the rate of benzoyl arginine p-nitroanilide) (Whittaker et al., Analytical Biochemistry, 220, 238-243, 1994).” for “reader.”
as §2, §3

Proteinase K = Proteinase K (Parengyodontium album, UniProt P06873); test: Esterase assay, proteinase K; format: biochemical; conditions: Z-AX-OMe substrate; for Esterase rate, Proteinase K: X = P1 residue, rates approximately ± 10%; for % of maximum activity, Proteinase K: percentage of the maximum activity
From the text: as §1, with “reader. The esterase assay, using trypsin as a test enzyme and Z-Ala-Arg-OMe as substrate, was more sensitive as than traditional trypsin substrates (three times the rate obtained with benzoyl arginine ethyl aster and twenty times the rate of benzoyl arginine p-nitroanilide) (Whittaker et al., Analytical Biochemistry, 220, 238-243, 1994).” for “reader.”
as §2, §3

Chymotrypsin = Chymotrypsin (Bos taurus, UniProt P00766); test: Esterase assay, chymotrypsin; format: biochemical; conditions: Z-AX-OMe substrate; for Esterase rate, Chymotrypsin: X = P1 residue, rates approximately ± 10%; for % of maximum activity, Chymotrypsin: percentage of the maximum activity
From the text: as §1, with “reader. The esterase assay, using trypsin as a test enzyme and Z-Ala-Arg-OMe as substrate, was more sensitive as than traditional trypsin substrates (three times the rate obtained with benzoyl arginine ethyl aster and twenty times the rate of benzoyl arginine p-nitroanilide) (Whittaker et al., Analytical Biochemistry, 220, 238-243, 1994).” for “reader.”
as §2, §3

Subtilisin = test: Esterase assay, subtilisin; format: biochemical; conditions: Z-AX-OMe substrate; for Esterase rate, Subtilisin: X = P1 residue, rates approximately ± 10%; for % of maximum activity, Subtilisin: percentage of the maximum activity
From the text: as §1, with “reader. The esterase assay, using trypsin as a test enzyme and Z-Ala-Arg-OMe as substrate, was more sensitive as than traditional trypsin substrates (three times the rate obtained with benzoyl arginine ethyl aster and twenty times the rate of benzoyl arginine p-nitroanilide) (Whittaker et al., Analytical Biochemistry, 220, 238-243, 1994).” for “reader.”
as §2, §3

Elastase = Elastase (Sus scrofa, UniProt P00772); test: Esterase assay, elastase; format: biochemical; conditions: Z-AX-OMe substrate; for Esterase rate, Elastase: X = P1 residue, rates approximately ± 10%; for % activity, Elastase: normalised to alanine
From the text: as §1, with “reader. The esterase assay, using trypsin as a test enzyme and Z-Ala-Arg-OMe as substrate, was more sensitive as than traditional trypsin substrates (three times the rate obtained with benzoyl arginine ethyl aster and twenty times the rate of benzoyl arginine p-nitroanilide) (Whittaker et al., Analytical Biochemistry, 220, 238-243, 1994).” for “reader.”
as §2, §3

Thrombin = Thrombin (Homo sapiens, UniProt P00734); test: Esterase assay, thrombin; format: biochemical; conditions: Z-AX-OMe substrate; for Esterase rate, Thrombin: X = P1 residue, rates approximately ± 10%; for % of maximum activity, Thrombin: percentage of the maximum activity
From the text: as §1, with “reader. The esterase assay, using trypsin as a test enzyme and Z-Ala-Arg-OMe as substrate, was more sensitive as than traditional trypsin substrates (three times the rate obtained with benzoyl arginine ethyl aster and twenty times the rate of benzoyl arginine p-nitroanilide) (Whittaker et al., Analytical Biochemistry, 220, 238-243, 1994).” for “reader.”
as §2, §3

Trypsin [3] = conditions: trypsin as test enzyme; cited from earlier work
[4] = substrates of the form Ac-Ala-x-TyrOMe, FIG. 2

Chain of prostate specific antigen (PSA) (P07288 25-261): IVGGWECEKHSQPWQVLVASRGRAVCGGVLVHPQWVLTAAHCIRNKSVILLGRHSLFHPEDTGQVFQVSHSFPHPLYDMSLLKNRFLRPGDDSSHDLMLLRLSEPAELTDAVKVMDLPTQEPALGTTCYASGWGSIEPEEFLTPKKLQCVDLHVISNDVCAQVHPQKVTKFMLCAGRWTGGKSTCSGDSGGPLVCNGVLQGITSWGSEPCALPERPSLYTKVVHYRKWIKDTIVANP
Chain of Proteinase K (P06873 106-384): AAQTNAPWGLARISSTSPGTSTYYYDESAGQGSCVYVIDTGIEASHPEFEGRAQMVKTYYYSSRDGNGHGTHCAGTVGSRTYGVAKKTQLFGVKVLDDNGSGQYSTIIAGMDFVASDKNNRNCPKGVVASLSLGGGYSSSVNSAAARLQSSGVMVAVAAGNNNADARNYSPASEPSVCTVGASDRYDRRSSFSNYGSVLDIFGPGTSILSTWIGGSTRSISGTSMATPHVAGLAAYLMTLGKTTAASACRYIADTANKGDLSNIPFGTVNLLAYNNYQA
Chain of α-Lytic protease (P00778 25-397 limits assumed): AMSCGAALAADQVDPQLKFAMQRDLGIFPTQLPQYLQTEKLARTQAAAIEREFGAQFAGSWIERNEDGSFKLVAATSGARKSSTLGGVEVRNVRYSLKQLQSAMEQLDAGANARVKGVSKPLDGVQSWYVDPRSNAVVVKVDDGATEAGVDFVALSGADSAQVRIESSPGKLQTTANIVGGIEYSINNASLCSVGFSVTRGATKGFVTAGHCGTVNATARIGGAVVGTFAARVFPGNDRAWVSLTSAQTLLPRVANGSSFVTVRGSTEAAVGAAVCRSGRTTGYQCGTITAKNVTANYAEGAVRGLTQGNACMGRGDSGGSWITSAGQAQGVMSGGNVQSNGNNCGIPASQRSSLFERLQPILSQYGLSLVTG
Chain of Elastase (P00772 27-266): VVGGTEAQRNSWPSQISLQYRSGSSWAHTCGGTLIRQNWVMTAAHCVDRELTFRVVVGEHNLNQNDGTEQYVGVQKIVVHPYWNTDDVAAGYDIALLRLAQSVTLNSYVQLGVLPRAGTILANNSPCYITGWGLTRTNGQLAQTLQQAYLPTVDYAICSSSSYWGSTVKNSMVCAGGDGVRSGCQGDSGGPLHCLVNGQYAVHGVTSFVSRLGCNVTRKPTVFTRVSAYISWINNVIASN

Row | Compound | Esterase rate, Trypsin (Trypsin [2]) | % of maximum activity, Trypsin (Trypsin [2]) [%] | Esterase rate, α-Lytic protease (α-Lytic protease) | % activity, α-Lytic protease (α-Lytic protease) [%] | Esterase rate, Proteinase K (Proteinase K) | % of maximum activity, Proteinase K (Proteinase K) [%] | Esterase rate, Chymotrypsin (Chymotrypsin) | % of maximum activity, Chymotrypsin (Chymotrypsin) [%] | Esterase rate, Subtilisin (Subtilisin) | % of maximum activity, Subtilisin (Subtilisin) [%] | Esterase rate, Elastase (Elastase) | % activity, Elastase (Elastase) [%] | Esterase rate, Thrombin (Thrombin) | % of maximum activity, Thrombin (Thrombin) [%] | other results
1 | PSA: prostate specific antigen, a protease; the enzyme tested on the substrates |  |  |  |  |  |  |  |  |  |  |  |  |  |  | Rate of PSA [1, 4]: 0.0263 OD580 change/min/μg; Rate of PSA, equivalent [1, 4]: 9.99 μmoles substrate/min/mg
2 | COC(=O)[C@H](Cc1ccc(O)cc1)NC(=O)[C@@H](NC(=O)[C@H](C)NC(C)=O)C(C)C [Substrate 218, Ac-AlaValTyr-OMe] (Ac-Ala-Val-Tyr-OMe) |  |  |  |  |  |  |  |  |  |  |  |  |  |  | Rate relative to Z-AlaTyr OMe (the screening substrate) ([1]; PSA, from the graph (FIG. 2)): 15.5; Substrate preference of PSA [1]: best
3 | COC(=O)[C@H](Cc1ccc(O)cc1)NC(=O)[C@H](C)NC(=O)OCc1ccccc1 [Tyr, Z-Ala-Tyr-OMe] (Cbz-Ala-Tyr-OMe) | 10.8 A580 change/min./mg protease | 3.0 | 0 A580 change/min./mg protease | 0 | 80 A580 change/min./mg protease | 10.3 | 55.2 A580 change/min./mg protease | 100 | 345 A580 change/min./mg protease | 16.1 | 0 A580 change/min./mg protease | 0 | 0 A580 change/min./mg protease | 0 | Substrate preference of PSA [1]: preferred substrate
4 | COC(=O)[C@H](Cc1ccc(O)cc1)NC(=O)[C@@H](NC(=O)[C@H](C)NC(=O)[C@@H](NC(C)=O)C(C)C)C(C)C [Ac-Val AlaValTyr-OMe] (Ac-VAVY-OMe) |  |  |  |  |  |  |  |  |  |  |  |  |  |  | Rate relative to Ac-AlaValTyr-OMe (218) ([1]; PSA): 64.6%
5 | COC(=O)[C@H](CCSC)NC(=O)[C@H](C)NC(=O)OCc1ccccc1 [Met] (Cbz-Ala-Met-OMe) | 0 A580 change/min./mg protease | 0 | 2.0 A580 change/min./mg protease | 32.3 | 525 A580 change/min./mg protease | 67.7 | 6.6 A580 change/min./mg protease | 12.0 | 2149 A580 change/min./mg protease | 100 | trace |  | 0 A580 change/min./mg protease | 0 | 
6 | COC(=O)[C@H](CCCCN)NC(=O)[C@H](C)NC(=O)OCc1ccccc1 [Lys] (Cbz-Ala-Lys-OMe) | 155.8 A580 change/min./mg protease | 44.0 | 0 A580 change/min./mg protease | 0 | 61 A580 change/min./mg protease | 7.9 | 1.5 A580 change/min./mg protease | 2.7 | 153 A580 change/min./mg protease | 7.1 | 0 A580 change/min./mg protease | 0 | 4.3 A580 change/min./mg protease | 49.0 | 
7 | COC(=O)[C@@H](NC(=O)[C@H](C)NC(=O)OCc1ccccc1)[C@@H](C)O [Thr] (Cbz-Ala-Thr-OMe) | 0 A580 change/min./mg protease | 0 | 4.2 A580 change/min./mg protease | 67.7 | 90 A580 change/min./mg protease | 11.6 | trace |  | 123 A580 change/min./mg protease | 5.7 | 3.1 A580 change/min./mg protease | 19.7 | 0 A580 change/min./mg protease | 0 | 
8 | COC(=O)[C@H](Cc1ccc(O)cc1)NC(=O)[C@H](CC(C)C)NC(=O)[C@H](C)NC(C)=O [Ac-AlaLeuTyr-OMe] (Ac-Ala-Leu-Tyr-OMe) |  |  |  |  |  |  |  |  |  |  |  |  |  |  | Rate relative to Ac-AlaValTyr-OMe (218) ([1]; PSA): 70%
9 | CC[C@H](C)[C@H](NC(=O)[C@H](C)NC(=O)OCc1ccccc1)C(=O)OC [Ile] (Cbz-Ala-Ile-OMe) | 0 A580 change/min./mg protease | 0 | 0 A580 change/min./mg protease | 0 | 5 A580 change/min./mg protease | 0.6 | 0 A580 change/min./mg protease | 0 | 16 A580 change/min./mg protease | 0.7 | 1.7 A580 change/min./mg protease | 11.0 | 0 A580 change/min./mg protease | 0 | 
10 | COC(=O)[C@H](CCC(N)=O)NC(=O)[C@H](C)NC(=O)OCc1ccccc1 [Gln] (Cbz-Ala-Gln-OMe) | 0 A580 change/min./mg protease | 0 | 0 A580 change/min./mg protease | 0 | 553 A580 change/min./mg protease | 71.4 | 0.5 A580 change/min./mg protease | 0.9 | 1308 A580 change/min./mg protease | 60.9 | 0 A580 change/min./mg protease | 0 | 0 A580 change/min./mg protease | 0 | 
11 | COC(=O)[C@H](CCCNC(=N)N)NC(=O)[C@H](C)NC(=O)OCc1ccccc1 [Arg, Z-Ala-Arg-OMe] (Cbz-Ala-Arg-OMe) | 355.4 A580 change/min./mg protease | 100 | 0 A580 change/min./mg protease | 0 | 24 A580 change/min./mg protease | 3.1 | 1.1 A580 change/min./mg protease | 2.0 | 97 A580 change/min./mg protease | 4.5 | 0 A580 change/min./mg protease | 0 | 8.7 A580 change/min./mg protease | 100 | Rate relative to benzoyl arginine ethyl ester (Trypsin [3]): three times; Rate relative to benzoyl arginine p-nitroanilide (Trypsin [3]): twenty times
12 | COC(=O)[C@H](C)NC(=O)[C@H](C)NC(=O)OCc1ccccc1 [Ala] (Cbz-Ala-Ala-OMe) | 0 A580 change/min./mg protease | 0 | 6.2 A580 change/min./mg protease | 100 | 775 A580 change/min./mg protease | 100 | trace |  | 1536 A580 change/min./mg protease | 73.8 | 15.7 A580 change/min./mg protease | 100 | 0 A580 change/min./mg protease | 0 | 
13 | COC(=O)[C@@H](NC(=O)[C@H](C)NC(=O)OCc1ccccc1)C(C)C [Val] (Cbz-Ala-Val-OMe) | 0 A580 change/min./mg protease | 0 | 1.3 A580 change/min./mg protease | 21.0 | 97 A580 change/min./mg protease | 12.5 | 0 A580 change/min./mg protease | 0 | 35 A580 change/min./mg protease | 1.6 | 2.1 A580 change/min./mg protease | 13.4 | 0 A580 change/min./mg protease | 0 | 

Source: patent publication US5932410A, “Assay for the detection of proteases” (Commonwealth Scientific and Industrial Research …, priority 1994, dated 1999)
